We go through two compounds from EP3192802A1, “STABILIZED PEPTIDE DERIVATIVES” (Bicycle Therapeutics Limited, priority 2016, dated 2017).

Assay [1] addresses T1, MT1-MMP (Homo sapiens, UniProt P50281). Nature of the assay: selectivity / cross-reactivity against other MMPs. It is filed as binding. The conditions noted are these: does not cross-react with MMP-1, MMP-2, MMP-15 and MMP-16.
Assay [2] has as its target T1, MT1-MMP. Nature of the assay: fluorescence polarisation competition experiments (affinity to MT1-MMP). It is filed as binding. The note with it: tris-sulfone version, Figure 2. As to the method:
Subsequently, the affinity to the MT1-MMP target was measured by fluorescence polarisation competition experiments for 17-69-07-N241, and its sulfone versions (Figure 2).
(In general: Fluorescence polarisation rises when a labelled molecule tumbles more slowly, as on binding a larger partner.)

Usually Kd stands for the free concentration of one partner at which half of the binding sites on the other are occupied at equilibrium, for simple one-to-one binding. Read a low Kd as higher affinity.

“-Ci-Y-N-E-F-G-Cii-E-D-F-Y-D-I-Ciii- [17-69-07]”: in assay [1], the “selectivity for MT1-MMP” value is reported as “uniquely selective for MT1-MMP”. As to `C[C@H](NC(=O)CN(C)C(=O)CN(C)C(=O)CN(C)C(=O)CN(C)C(=O)CN(C)C(=O)CN(C)C(=O)CN(C)C(=O)CN(C)C(=O)CN(C)C(=O)CN(C)C(=O)CCN)C(=O)N[C@H]1CS(=O)(=O)Cc2cc3cc(c2)CS(=O)(=O)C[C@H](NC(=O)[C@@H](C)NC(=O)[C@H](Cc2cccc4ccccc24)NC(=O)[C@H](CCC(=O)O)NC(=O)[C@H](CC(N)=O)NC(=O)[C@@H](C)NC1=O)C(=O)N[C@@H](CCC(=O)O)C(=O)N[C@@H](CC(=O)O)C(=O)N[C@@H](Cc1ccccc1)C(=O)N[C@@H](Cc1ccc(O)cc1)C(=O)N[C@@H](CC(=O)O)C(=O)N[C@@H](C(C)(C)C)C(=O)N[C@H](C(N)=O)CS(=O)(=O)C3` [17-69-07-N338], the dissociation constant Kd in assay [2] is approximately 10 nM.
